Measured values reported in article PMC6027146, “Synthesis and Structure-Activity Relationships of (−)-cis-N-Normetazocine-Based LP1 Derivatives” (Pharmaceuticals, 2018).
Entries after “also recorded” stand apart in the source; their conditions may differ. Like-named read-outs stand apart in the source and are kept apart here.

Assays:
human-KOR [1] = target: T1, human-KOR (Homo sapiens, UniProt P41145); assay: Calcium mobilization assay, CHO-KOR cells expressing Gαqi5; format: cell-based; design: expressed in transfected cells; gift of Dr. Larry Toll (SRI International); infected with a retrovirus for Gαqi5; conditions: for KOR pEC50 (CL95%): agonist mode, crc incomplete = incomplete concentration response curve at 10 μM; for KOR pEC50 (CL95%) / KOR pKB (CL95%): Inactive = inactive at 10 μM; for KOR pKB (CL95%): antagonist mode, dynorphin A as agonist; for functional profile at KOR: calcium mobilization
Experimental: (§1) The pharmacological characterization of LP1 derivatives 2 and 10–16 was performed by calcium mobilization assay (Table 2). This procedure was preliminarily validated through a series of experiments where the effects of DPDPE, dermorphin, and dynorphin A were assessed in CHO cells expressing the human recombinant opioid receptors and Gαqi5 or GαqG66Di5 chimeric proteins.
(§2) Chinese hamster ovary (CHO) cells expressing the recombinant human MOR and KOR (CHO^MOR and CHO^KOR) were kindly provided by Dr. Larry Toll (SRI International, Menlo Park, CA, USA), and CHO cells expressing the recombinant human DOR (CHO^DOR) were supplied by Dr. Eva Varga (Department of Medical Pharmacology, The University of Arizona, Tucson, AZ, USA). CHO cells lines permanently coexpressing the opioid receptors and the C-terminally modified Gαqi5 were prepared by infecting the CHO lines described above with a recombinant retrovirus expressing the chimeric α subunit and the hygromycin resistance gene. Similarly, CHO cells lines permanently coexpressing DOR and the C-terminally modified GαqG66Di5 were prepared by infecting the CHO lines described above with a recombinant retrovirus expressing the chimeric α subunit and the hygromycin resistance gene. Polyclonal cell lines were generated using the pantropic retroviral expression system form BD-Clontech, as described previously. Stable lines were selected under hygromycin B (100 μg/mL) and geneticin (600 μg/mL) for 2–3 weeks after the infection.
(§3) CHO cells, expressing human opioid receptors and the Gαqi5 protein, and CHODOR, expressing the GαqG66Di5 protein, were maintained in culture medium consisting of Dulbecco minimum essential medium (DMEM) and Ham F-12 (1:1) (50/50) supplemented with 10% fetal calf serum (FCS), L-glutamine (2 mM), geneticin (200 μg/mL; G418), hygromycin B (100 μg/mL) at 37 °C in 5% CO2 humidified air. When confluence was reached (3–4 days), cells were subcultured as required using trypsin/EDTA, and used for experimentation. The different cell lines were seeded at a density of […] into black 96-well, clear-bottomed plates. After 24 h incubation, the cells were loaded with medium supplemented with 2.5 mM probenecid, 3 μM of the calcium sensitive fluorescent dye Fluo-4 AM, and 0.01% pluronic acid, for 30 min at 37 °C. Afterwards, the loading solution was aspirated and 100 μL/well of assay buffer—HBSS supplemented with 20 mM HEPES, 2.5 mM probenecid and 500 μM Brilliant Black (Aldrich, St. Louis, MO, USA)—was added. Serial dilutions of ligands for experimental use were made in HBSS/HEPES (20 mM) buffer (containing 0.005% BSA fraction V). After placing both plates (cell culture and compound plate) into the FlexStation II (Molecular Device, Union City, San Jose, CA 94587, USA), fluorescence changes were measured at room temperature. Online additions were carried out in a volume of 50 μL/well. Antagonists were incubated 15 min before the addition of the agonist. Maximum change in fluorescence, expressed in percent of baseline fluorescence, was used to determine agonist response.
(§4) Analysis of the binding data was performed using the Origin 7.5 software (OriginLab Corporation, Northampton, MA, USA). In calcium mobilization experiments, data were analyzed by non-linear curve fitting equation, using GraphPad 5.0 software. […] Ligand efficacy was expressed as intrinsic activity (α), calculated as the ratio between the Emax of the ligand and that of the respective standards. Calcium mobilization data were expressed as FIU (fluorescence intensity units) in percent, over the baseline. Agonist potencies are given as pEC50 (the negative logarithm to base 10 of the molar concentration of an agonist that produces 50% of the maximal possible effect, Emax). Concentration response curves to agonists were fitted with the following equation: Effect = baseline + (Emax − baseline)/(1+10^(LogEC50 − X) ∗ HillSlope) where X is the agonist concentration. […]

recombinant human MOR = target: T2, recombinant human MOR (Homo sapiens, UniProt P35372); assay: Calcium mobilization assay, CHO-MOR cells expressing Gαqi5; format: cell-based; conditions: for functional profile at MOR: calcium mobilization; for intrinsic activity (α) at MOR: ratio of Emax of ligand to that of the standard; for MOR pEC50 (CL95%): agonist mode, Inactive = inactive at 10 μM, crc incomplete = incomplete concentration response curve at 10 μM
T2 construct: expressed in transfected cells; gift of Dr. Larry Toll (SRI International); infected with a retrovirus for Gαqi5

rat-DOR = target: T3, rat-DOR (Rattus norvegicus, UniProt P33533); assay: Radioligand competition binding, [3H]-DPN, HEK293 membranes, DOR
T3 construct: expressed in transfected cells
Experimental: (§5) All synthesized compounds were tested in vitro by radioligand competition binding using [^3H]-diprenorphine ([^3H]-DPN) to measure the affinity for opioid receptor subtypes in membranes from HEK293 cells stably expressing either MOR, DOR, or KOR, as previously described.
(§6) Confluent monolayers of HEK293 (human embryonic kidney 293) cells stably expressing rat-MOR, rat-DOR, or human-KOR were harvested, collected by centrifugation at 1500 rpm for 5 min, and washed once with phosphate-buffered saline (PBS) at pH 7.5. Membranes from cell pellets were carried out as described by Georgoussi and Zioudrou (1993) and Papakonstantinou et al. (2015). Briefly, cell pellets were resuspended in ice-cold membrane buffer (10 mM Tris-HCl, pH 7.5 and 0.1 mM EDTA), homogenized, and centrifuged at 2,000 g for 3 min at 4 °C. Supernatants were further centrifuged at 45,000 rpm for 30 min at 4 °C. The membrane pellet was resuspended in ice-cold membrane buffer at a protein concentration of approximately 1 mg/mL and stored in aliquots at −70 °C. Protein concentration was determined according to Bradford assay.
(§7) In the experiments designed to define compound affinity and selectivity for MOR, DOR, and KOR, membranes expressing each of these opioid receptors ([…]) were incubated at 30 °C for 45 min in buffer containing 50 mM Tris-HCl, pH 7.5, 100 mM NaCl, and 10 mM MgCl2 as described by Georgoussi et al. […] The ability of compounds 10–16 to displace [^3H]-DPN (3.75 nM) binding to the opioid receptors was assessed as described by Morou And Georgoussi (2005). Non-specific binding was measured in the presence of […] Naloxone. The reaction was stopped by rapid filtration and three washes in ice-cold 50 mM Tris-HCl, pH 7.4, through GF/C filters (Whatman, Maidstone, UK) using an automated cell harvester (Brandel Inc., Gaithersburg, MD, USA). The radioactivity was measured by liquid scintillation counting (Liquid Scintillation Analyzer, Packard).
(§8) Analysis of the binding data was performed using the Origin 7.5 software (OriginLab Corporation, Northampton, MA, USA). In calcium mobilization experiments, data were analyzed by non-linear curve fitting equation, using GraphPad 5.0 software. […] Ligand efficacy was expressed as intrinsic activity (α), calculated as the ratio between the Emax of the ligand and that of the respective standards. Calcium mobilization data were expressed as FIU (fluorescence intensity units) in percent, over the baseline. Agonist potencies are given as pEC50 (the negative logarithm to base 10 of the molar concentration of an agonist that produces 50% of the maximal possible effect, Emax). Concentration response curves to agonists were fitted with the following equation: Effect = baseline + (Emax − baseline)/(1+10^(LogEC50 − X) ∗ HillSlope) where X is the agonist concentration.

recombinant human DOR = target: T4, recombinant human DOR (Homo sapiens, UniProt P41143); assay: Calcium mobilization assay, CHO-DOR cells expressing GαqG66Di5; format: cell-based; conditions: for DOR pEC50 (CL95%): agonist mode, crc incomplete = incomplete concentration response curve at 10 μM; for DOR pEC50 (CL95%) / DOR pKB (CL95%): Inactive = inactive at 10 μM; for DOR pKB (CL95%): antagonist mode, DPDPE as agonist; for functional profile at DOR: calcium mobilization
T4 construct: expressed in transfected cells; supplied by Dr. Eva Varga (University of Arizona); infected with a retrovirus for GαqG66Di5
Experimental: as §1, §2, §3, §4

human-KOR [2] = target: T1, human-KOR; assay: Radioligand competition binding, [3H]-DPN, HEK293 membranes, KOR; design: expressed in transfected cells
Experimental: as §5, §6, §7, §8

rat-MOR = target: T5, rat-MOR (Rattus norvegicus, UniProt P33535); assay: Radioligand competition binding, [3H]-DPN, HEK293 membranes, MOR
T5 construct: expressed in transfected cells
Experimental: as §5, §6, §7, §8

Row | SMILES | KOR pEC50 (CL95%) (human-KOR [1]) | EC50 (recombinant human MOR) | functional profile at MOR (recombinant human MOR) | intrinsic activity (α) at MOR (recombinant human MOR) | Ki (rat-DOR) | DOR pEC50 (CL95%) (recombinant human DOR) | DOR pKB (CL95%) (recombinant human DOR) | Ki (human-KOR [2]) | Ki (rat-MOR) | Kb (human-KOR [1]) | KOR pKB (CL95%) (human-KOR [1]) | functional profile at KOR (human-KOR [1]) | Kb (recombinant human DOR) | functional profile at DOR (recombinant human DOR) | melting point | Kb (recombinant human MOR) | MOR pEC50 (CL95%) (recombinant human MOR) | other results
1 | C[C@H]1[C@H]2Cc3ccc(O)cc3[C@]1(C)CCN2CCC(=O)Nc1ccc(F)cc1 [Compound 10, N-(4-Fluorophenyl)-3-[(2R,6R,11R)-8-hydroxy-6,11-dimethyl-1,4,5,6-tetrahydro-2,6-methano-3-benzazocin-3(2H)-yl]propanamide] | crc incomplete | 2140 nM | MOR partial agonists | 0.30 ± 0.015 | 920 ± 120 nM | able to stimulate calcium mobilization, but only at the higher concentration tested; also recorded: crc incomplete | Inactive | 4.8 ± 0.95 µM | 0.28 ± 0.013 µM |  |  |  |  |  |  |  |  | 
2 | Cc1ccc(NC(=O)CCN2CC[C@@]3(C)c4cc(O)ccc4C[C@@H]2[C@@H]3C)cc1 [Compound 11, 3-[(2R,6R,11R)-8-Hydroxy-6,11-dimethyl-1,4,5,6-tetrahydro-2,6-methano-3-benzazocin-3(2H)-yl]-N-(4-methylphenyl)propanamide] | Inactive | 1410 nM | MOR partial agonists | 0.23 ± 0.011 | 410 ± 23 nM | Inactive |  | 1.01 ± 0.11 µM | 0.24 ± 0.015 µM | 1410 nM | able to inhibit the stimulatory effects induced by dynorphin A | DOR/KOR antagonists | 1480 nM | DOR/KOR antagonists |  |  |  | 
3 | C[C@H]1[C@H]2Cc3ccc(O)cc3[C@]1(C)CCN2CCC(=O)Nc1ccc(C#N)cc1 [Compound 12, N-(4-Cyanophenyl)-3-[(2R,6R,11R)-8-hydroxy-6,11-dimethyl-1,4,5,6-tetrahydro-2,6-methano-3-benzazocin-3(2H)-yl]propanamide] | Inactive | 1020 nM | MOR partial agonists | 0.34 ± 0.017 | 380 ± 34 nM | Inactive |  | 0.85 ± 0.18 µM | 0.21 ± 0.024 µM | 1260 nM | able to inhibit the stimulatory effects induced by dynorphin A | DOR/KOR antagonists | 1510 nM | DOR/KOR antagonists |  |  |  | 
4 | COc1ccc(NC(=O)CCN2CC[C@@]3(C)c4cc(O)ccc4C[C@@H]2[C@@H]3C)cc1 [Compound 13, 3-[(2R,6R,11R)-8-Hydroxy-6,11-dimethyl-1,4,5,6-tetrahydro-2,6-methano-3-benzazocin-3(2H)-yl]-N-(4-methoxyphenyl)propanamide] | Inactive |  |  |  | 1100 ± 110 nM | Inactive | Inactive | 4 ± 0.18 µM | 0.18 ± 0.011 µM |  | Inactive |  |  |  | 172.9 to 173.5 °C | 501 nM | Inactive | 
5 | C[C@H]1[C@H]2Cc3ccc(O)cc3[C@]1(C)CCN2CCC(=O)N1CCCc2ccccc21 [Compound 15, 1-(3,4-Dihydroquinolin-1(2H)-yl)-3-[(2R,6R,11R)-8-hydroxy-6,11-dimethyl-1,4,5,6-tetrahydro-2,6-methano-3-benzazocin-3(2H)-yl]-propan-1-one] |  |  |  |  |  | Inactive | Inactive |  |  |  |  | partial agonist of KOR |  |  | 92.2 °C (dec.) |  | Inactive | intrinsic activity (α) at KOR (human-KOR [1]; ratio of Emax of ligand to that of the standard): 0.32 ± 0.016; EC50 (human-KOR [1]; read-out: KOR pEC50 (CL95%) (converted)): 257 nM; Ki (human-KOR [2]; [3H]-DPN displacement, means ± SEM of three experiments in duplicate, read-out: Ki (μM) ± SEM KOR): 0.2 ± 0.02 µM; Ki (rat-MOR; [3H]-DPN displacement, means ± SEM of three experiments in duplicate, read-out: Ki (μM) ± SEM MOR): 0.36 ± 0.023 µM
6 | C[C@H]1[C@H]2Cc3ccc(O)cc3[C@]1(C)CCN2CCC(=O)N(c1ccccc1)c1ccccc1 [Compound 16, 3-[(2R,6R,11R)-8-Hydroxy-6,11-dimethyl-1,4,5,6-tetrahydro-2,6-methano-3-benzazocin-3(2H)-yl]-N,N-diphenylpropanamide] | Inactive |  | MOR/KOR antagonist |  |  | Inactive | Inactive | 0.2 ± 0.03 µM | 0.17 ± 0.013 µM | 776 nM | able to inhibit the stimulatory effects induced by dynorphin A | MOR/KOR antagonist |  |  | 173.5 °C (dec.) | 759 nM | Inactive | 
